Measurements as given in ChEMBL document CHEMBL3507680, “University of Dundee, Gates Library screen for HepG2 cell viability”.

Test: Human HepG2 cell viability assay in 384 well format
Format: toxicity, cell-based
Design: dose 125 nL, time 70.5 hour; concentration not given beside the values
Settings: HepG2 cells, read-out: Inhibition

Structure (SMILES): CCn1nc(CC(C)C)cc1C(=O)NCCCN1CCOCC1
- cytotoxicity at 70.5 h: -0.263%

Structure (SMILES): Cn1cc(C2=NOC(C(=O)NC3(c4ccccc4F)CCCC3)C2)cn1 (configuration not stated)
- cytotoxicity at 70.5 h: 12.6%

Structure (SMILES): CC1(C)CN(C(=O)Nc2cc(C(F)(F)F)c[nH]c2=O)CCO1
- cytotoxicity at 70.5 h: -6.62%

Structure (SMILES): Cc1cc(F)ccc1N1CCCC(NC(=O)CCCn2ccnc2)C1 (configuration not stated)
- cytotoxicity at 70.5 h: -26%

Structure (SMILES): Cc1ccc(NC(=O)NCC2(N3CCOCC3)CCSC2)c(C)c1 (configuration not stated)
- cytotoxicity at 70.5 h: 8.25%

Structure (SMILES): CC1=Nc2c(c(O)nn2C(C)C)C(c2cnn(C)c2)S1 (configuration not stated)
- cytotoxicity at 70.5 h: -11%

Structure (SMILES): CC1CCCN(Cc2c(C3CC3)n(CC(=O)N(C)C)c3ncccc23)C1 (configuration not stated)
- cytotoxicity at 70.5 h: 27.3%

Structure (SMILES): CC(=O)N1CCC(NC(=O)Cc2csc(C(C)(C)C)n2)CC1
- cytotoxicity at 70.5 h: -6.85%

Structure (SMILES): O=C(Cc1ccc2c(c1)OCC2)Nc1nn[nH]n1
- cytotoxicity at 70.5 h: -8.8%

Structure (SMILES): Cc1cc(C)n(CC2CCCCN2C(=O)c2ccsc2)n1 (configuration not stated)
- cytotoxicity at 70.5 h: -2.03%

Structure (SMILES): CC(CO)NC(=O)Nc1ccc(S(C)(=O)=O)nc1 (configuration not stated)
- cytotoxicity at 70.5 h: -2.27%

Structure (SMILES): CC(C)C(=O)N1CCC(C2C(=O)Nc3ccccc32)CC1 (configuration not stated)
- cytotoxicity at 70.5 h: -16.1%

Structure (SMILES): O=C1CCC(CCC(=O)N2CCCC2c2nccs2)=NN1 (configuration not stated)
- cytotoxicity at 70.5 h: 8.6%

Structure (SMILES): Cc1nc2sc(C(=O)N3CCNC(=O)C3)c(C)c2c(=O)[nH]1
- cytotoxicity at 70.5 h: -4.68%

Structure (SMILES): COc1ccc(C)cc1C(C)NCc1cccn1C (configuration not stated)
- cytotoxicity at 70.5 h: -0.611%

Structure (SMILES): Cn1ncc2c(N3CCCC(C)(O)C3)nc(C(C)(C)C)nc21 (configuration not stated)
- cytotoxicity at 70.5 h: -7.72%

Structure (SMILES): COCC(NC(=O)NCc1cccc(C#N)c1)c1ccco1 (configuration not stated)
- cytotoxicity at 70.5 h: -2.38%

Structure (SMILES): Cc1cccc(-c2nc(C)nn2CN2CCN(S(C)(=O)=O)CC2)c1
- cytotoxicity at 70.5 h: -3.93%

Structure (SMILES): Cc1cc(C)n(CC2CCCN2C(=O)c2ccc3c(c2)nnn3C)n1 (configuration not stated)
- cytotoxicity at 70.5 h: 1.66%

Structure (SMILES): COc1ccc(-n2ccc(C(=O)N(C)C(C)C3(C)CC3)n2)cc1 (configuration not stated)
- cytotoxicity at 70.5 h: 21.1%

Structure (SMILES): CCc1nc(C(=O)N(C)CC(=O)N(C)C)nn1-c1ccccc1Cl
- cytotoxicity at 70.5 h: 27.7%

Structure (SMILES): CC(C)(C)c1cc(C[C@H]2CNCC[C@H]2CC(=O)NCc2cccs2)no1
- cytotoxicity at 70.5 h: -6.24%

Structure (SMILES): CN1CCC(c2cccc(NCc3nccn3C)n2)CC1
- cytotoxicity at 70.5 h: 22.4%

Structure (SMILES): Cc1nccn1C1CCCN(C(=O)CCOCC(F)(F)F)C1 (configuration not stated)
- cytotoxicity at 70.5 h: 17.2%

Structure (SMILES): Cc1cnc(C(=O)Nc2cc(F)ccc2OCC2CCCO2)cn1 (configuration not stated)
- cytotoxicity at 70.5 h: -6.23%

Structure (SMILES): CCN(C(C)=O)C(c1ccc(Cl)cc1)c1ccccn1 (configuration not stated)
- cytotoxicity at 70.5 h: -14.6%

Structure (SMILES): CN1CCOC(CNCc2nc(-c3ccoc3)no2)C1 (configuration not stated)
- cytotoxicity at 70.5 h: -6.11%

Structure (SMILES): COc1cccc(CCC(=O)N2CCCC(c3nncn3C)C2)c1 (configuration not stated)
- cytotoxicity at 70.5 h: -7.27%

Structure (SMILES): CCN1CCCCC1C(=O)N1CCC(OCCOC)CC1 (configuration not stated)
- cytotoxicity at 70.5 h: 1.39%

Structure (SMILES): Cc1[nH]c2ccccc2c1-c1ccnc(NCCN2CCOCC2)n1
- cytotoxicity at 70.5 h: 25.2%

Structure (SMILES): CN(C)C(=O)C1(C)CN(Cc2cn(C)c3ccc(F)cc23)CCO1 (configuration not stated)
- cytotoxicity at 70.5 h: 9.86%

Structure (SMILES): N#Cc1ccc(NC(=O)N2CCCCC2CN2CCCC2=O)cc1 (configuration not stated)
- cytotoxicity at 70.5 h: -11%

Structure (SMILES): COc1ccnc(N2CCN(C(=O)COCC(F)(F)F)CC2)n1
- cytotoxicity at 70.5 h: 13%

Structure (SMILES): Cc1ccc(S(=O)(=O)N2CCN(CCCO)CC2)s1
- cytotoxicity at 70.5 h: -2.4%

Structure (SMILES): CCC(C(=O)N1CCS(=O)(=O)CC1)n1cccn1 (configuration not stated)
- cytotoxicity at 70.5 h: -4.81%

Structure (SMILES): CC(=O)N1CC[C@H](c2nc3cc(F)ccc3o2)C1
- cytotoxicity at 70.5 h: 2.32%

Structure (SMILES): CNc1nccc(C2CCCCN2Cc2cnn3cccnc23)n1 (configuration not stated)
- cytotoxicity at 70.5 h: -9.3%

Structure (SMILES): Cc1ccccc1C(=O)N1Cc2c(Cn3ccnc3)nn(C)c2C1
- cytotoxicity at 70.5 h: -9.48%

Structure (SMILES): O=C(CCN1CCCC(CO)(CC2CC2)C1)NCc1cccc(Cl)c1 (configuration not stated)
- cytotoxicity at 70.5 h: -7.94%

Structure (SMILES): CCN1CCCC12CCCN(c1ncccn1)C2 (configuration not stated)
- cytotoxicity at 70.5 h: -9.5%

Structure (SMILES): CCCc1nnsc1C(=O)N1CCCC1(C)C(=O)N1CCOCC1 (configuration not stated)
- cytotoxicity at 70.5 h: -9.09%

Structure (SMILES): CCn1ncc2c1CCCC2NCc1ccc2c(c1)CCO2 (configuration not stated)
- cytotoxicity at 70.5 h: -0.486%

Structure (SMILES): O=C1COC2(CCN(Cc3cccnc3)CC2)CN1
- cytotoxicity at 70.5 h: 12.3%

Structure (SMILES): O=C(NCC(F)F)c1ccc(S(=O)(=O)N2CCCC(O)C2)cc1 (configuration not stated)
- cytotoxicity at 70.5 h: 18.2%

Structure (SMILES): Cc1nc(C)n(CC2CCCN(CCCS(=O)(=O)N(C)C)C2)n1 (configuration not stated)
- cytotoxicity at 70.5 h: -0.887%

Structure (SMILES): CC(O)c1cccc(N2CCC3(CCC(=O)N(CC(N)=O)C3)CC2)n1 (configuration not stated)
- cytotoxicity at 70.5 h: -11.2%

Structure (SMILES): CN(CC(N)=O)C(=O)c1csc(Br)c1
- cytotoxicity at 70.5 h: -7.59%

Structure (SMILES): Cc1ccc(F)c(OC2(C(=O)O)CCN(C(=O)N3CCCC3)CC2)c1
- cytotoxicity at 70.5 h: -9.12%

Structure (SMILES): CCCc1ccc(S(=O)(=O)NCCNC(=O)c2ccoc2)cc1
- cytotoxicity at 70.5 h: -6.96%

Structure (SMILES): N#CCCN(CC(=O)Nc1ccc(Br)cc1Cl)Cc1cccnc1
- cytotoxicity at 70.5 h: -1.52%

Structure (SMILES): CCCS(=O)(=O)N1C[C@H]2OC(=O)N(CCc3cccc(Cl)c3)[C@H]2C1
- cytotoxicity at 70.5 h: -4.21%

Structure (SMILES): Cc1nc(NCCc2ccc(Cl)cc2)cc(C(=O)N2CCOCC2)n1
- cytotoxicity at 70.5 h: -7.59%

Structure (SMILES): Cc1cnc(CN2CCOC(CN(C)c3cccnn3)C2)cn1 (configuration not stated)
- cytotoxicity at 70.5 h: -0.738%

Structure (SMILES): CNC(=O)c1sccc1S(=O)(=O)Nc1ccc(C)cc1
- cytotoxicity at 70.5 h: -1.86%

Structure (SMILES): CC(C)n1c(=O)c2sccc2n(CC(=O)Nc2cccc(Cl)c2)c1=O
- cytotoxicity at 70.5 h: -12.8%

Structure (SMILES): COc1cccc2c1OCC(Cc1cc(C(N)=O)ccn1)C2 (configuration not stated)
- cytotoxicity at 70.5 h: 26%

Structure (SMILES): Cc1cc(CN2CCC(CNC(=O)c3ccc(C#N)cc3)C2)[nH]n1 (configuration not stated)
- cytotoxicity at 70.5 h: -0.514%

Structure (SMILES): Cc1occc1C(=O)N1CCCS1(=O)=O
- cytotoxicity at 70.5 h: -12%

Structure (SMILES): Cc1cnn(CC2CCCN2C(=O)Cc2c(C)noc2Cl)c1 (configuration not stated)
- cytotoxicity at 70.5 h: -4.41%

Structure (SMILES): Cc1ccc(CNC(=O)c2cc(Cn3ccnc3C(C)C)[nH]n2)o1
- cytotoxicity at 70.5 h: 20.2%

Structure (SMILES): CN(C)C(=O)CN1CC[C@H]2CN(S(C)(=O)=O)C[C@@H]2C1=O
- cytotoxicity at 70.5 h: -3.84%

Structure (SMILES): NC(=O)N1CCCN(CC(=O)NCCc2c(F)cccc2F)CC1
- cytotoxicity at 70.5 h: -6.21%

Structure (SMILES): CC(C)c1nc2c(n1C)CCN(CCCc1nc3ccccc3o1)C2
- cytotoxicity at 70.5 h: -0.617%

Structure (SMILES): CC(C)CN(CC(O)c1ccccc1)C(=O)NC(C)C (configuration not stated)
- cytotoxicity at 70.5 h: -4.36%

Structure (SMILES): c1cnn(CC2CN(Cc3nc(C4CC4)no3)CCO2)c1 (configuration not stated)
- cytotoxicity at 70.5 h: 19.7%

Structure (SMILES): CC(Cn1cccn1)NC(=O)c1cc(C2CC2)nc2c1cnn2C (configuration not stated)
- cytotoxicity at 70.5 h: -9.86%

Structure (SMILES): O=C(CCc1cc(Cl)no1)N1CCN(CCn2cncn2)CC1
- cytotoxicity at 70.5 h: -0.942%

Structure (SMILES): Cc1oncc1C(=O)NCC(c1ccccc1Cl)N1CCOCC1 (configuration not stated)
- cytotoxicity at 70.5 h: -3.09%

Structure (SMILES): Cc1nc(C(=O)N2CCCN(Cc3cnn(C)c3)CC2)ccc1C#N
- cytotoxicity at 70.5 h: -8.5%

Structure (SMILES): CCOC(=O)CC(c1ccc(OC)c(OC)c1)c1c(O)n[nH]c1C (configuration not stated)
- cytotoxicity at 70.5 h: -15.2%

Structure (SMILES): CN1CCN(C)C2(CCN(Cc3ccc(C4CCCCO4)o3)CC2)C1 (configuration not stated)
- cytotoxicity at 70.5 h: -1.75%

Structure (SMILES): COCC1COCCC12CCN(CCc1ccccc1)CC2 (configuration not stated)
- cytotoxicity at 70.5 h: -0.938%

Structure (SMILES): Cc1ccc(C(N)=O)cc1NCCOc1cccc(C#N)c1
- cytotoxicity at 70.5 h: -4.01%

Structure (SMILES): CCN1C(=O)C[C@@H]2[C@@H]1CCN2S(=O)(=O)c1cccc(C)c1
- cytotoxicity at 70.5 h: 12.1%

Structure (SMILES): Cc1nc(CN2C(=O)CC[C@@H]3[C@H]2CCN3C(=O)C2CCOCC2)cs1
- cytotoxicity at 70.5 h: -7.34%

Structure (SMILES): Cc1ccc(C)c(OC2CCN(C(=O)c3ccc(O)nc3)CC2)c1
- cytotoxicity at 70.5 h: 2.43%

Structure (SMILES): CCC(C)C(=O)NS(=O)(=O)c1ccc(C#N)cc1C(F)(F)F (configuration not stated)
- cytotoxicity at 70.5 h: -3.39%

Structure (SMILES): Cn1cc(C(=O)N2CC[C@@]3(O)CCN(C(=O)C4CCCC4)C[C@H]3C2)cn1
- cytotoxicity at 70.5 h: -10.4%

Structure (SMILES): O=C(CN(Cc1cccnc1)CC1CCCO1)Nc1ccc(F)cc1 (configuration not stated)
- cytotoxicity at 70.5 h: 2.4%

Structure (SMILES): Cc1ccccc1CNC(=O)c1ccccc1-n1cc(CN)cn1
- cytotoxicity at 70.5 h: -8.06%

Structure (SMILES): O=C(O)c1cnc(N2CCCC2)nc1COc1ccccc1
- cytotoxicity at 70.5 h: -2.71%

Structure (SMILES): CC(=O)N1CCCN(C(C)c2ccc(Br)cc2)CC1 (configuration not stated)
- cytotoxicity at 70.5 h: 17.2%
